Results on 12 compounds are retold here after patent publication US20260022142A1, “MACROCYCLIC IMMUNOMODULATORS” (Bristol-Myers Squibb Company, priority 2022, published 2026).

Bridge positions count the residues as written; N and C are the ends. Square brackets hold non-standard residues; d marks the D form. Peptide text beside a SMILES is read from it. * marks the point of attachment. ξ: configuration not given here. Bip = N[C@@H](Cc1ccc(-c2ccccc2)cc1)C(=O)O; NH(CH2)14COOH = O=C(O)CCCCCCCCCCCCCCN*; Phe(3-Me) = Cc1cccc(C[C@H](N)C(=O)O)c1; Val(3-OH) = CC(C)(O)[C@H](N)C(=O)O; mTyr = N[C@@H](Cc1cccc(O)c1)C(=O)O; hArg = N=C(N)NCCCC[C@H](N)C(=O)O; Cha = N[C@@H](CC1CCCCC1)C(=O)O; Cit = NC(=O)NCCC[C@H](N)C(=O)O; Ile(3ξ) = CCC(C)[C@H](N)C(=O)O; Thr(3ξ) = CC(O)[C@H](N)C(=O)O; 12Ado = NCCCCCCCCCCCC(=O)O; dDab = NCC[C@@H](N)C(=O)O; Carboxymethyl = O=C(O)C*; Orn = NCCC[C@H](N)C(=O)O; Aun = NCCCCCCCCCCC(=O)O; Dab = NCC[C@H](N)C(=O)O; Dap = NC[C@H](N)C(=O)O; AEEA = NCCOCCOCC(=O)O

T1 sequence (Q15116 25-288): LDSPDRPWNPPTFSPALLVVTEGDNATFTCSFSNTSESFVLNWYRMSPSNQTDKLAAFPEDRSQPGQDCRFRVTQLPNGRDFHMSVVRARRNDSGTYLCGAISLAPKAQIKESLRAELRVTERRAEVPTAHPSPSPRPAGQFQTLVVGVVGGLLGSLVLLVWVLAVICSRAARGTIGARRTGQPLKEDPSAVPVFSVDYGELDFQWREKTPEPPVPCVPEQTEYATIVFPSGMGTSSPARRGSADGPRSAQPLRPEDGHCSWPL

The assay has as its target T1, PD-1/PD-L1 interaction (PE-labeled human PD-L1-Ig binding to Jurkat cell line over-expressing human PD-1) (Homo sapiens, UniProt Q15116).
T1 construct: expressed in transfected cells; host or cells: Jurkat
The assay is described as follows: Jurkat-PD-1 Cell Binding High-Content Screening Assay (CBA). The assay is classed as cell-based. Particulars: Jurkat cell line over-expressing human PD-1; PE-labeled PD-L1-Ig 20 nM final; read-out: Jurkat hPD1-PDL1 IC50. Put shortly:
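Jurkat cells over-expressing human PD-1 (8×10^3 per well, DMEM/10% FCS) preincubated with compound 2 h at 37° C, then PE-labeled human PD-L1-Ig (20 nM final) added for 1 h. Cells fixed with paraformaldehyde, Hoechst-stained, and bound fluorescence quantified by high-content imaging.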
One may read the IC50 as the concentration that inhibits the measured activity by half. `Cc1cccc(C[C@@H]2NC(=O)[C@H](CC(=O)O)NC(=O)[C@H](Cc3ccc(OCC(=O)O)cc3)NC(=O)[C@H](C(C)O)NC(=O)CSC[C@@H](C(=O)N[C@@H](CCN)C(=O)NCCOCCOCC(=O)NCCCCCCCCCCC(=O)O)NC(=O)[C@H](CCC(=O)O)NC(=O)[C@H](C(C)C)NC(=O)[C@H](CC3CCCCC3)NC(=O)[C@H](CCN)NC(=O)[C@@H](CC(C)C)NC(=O)[C@H](CCCN)NC(=O)[C@H](Cc3ccc(OCC(=O)O)cc3)NC(=O)[C@H](Cc3ccc(-c4ccccc4)cc3)NC(=O)[C@H](Cc3ccc(OCC(=O)O)cc3)NC2=O)c1` (stereo partly drawn) [Compound 3806] ({CH2CO}-[Thr(3ξ)]Y(Carboxymethyl)D[Phe(3-Me)]Y(Carboxymethyl)[Bip]Y(Carboxymethyl)[Orn][dL][Dab][Cha]VEC[Dab][AEEA][Aun]-OH; thioether N-14): the IC50 came out at 5.2 nM.

For `Cc1cccc(C[C@@H]2NC(=O)[C@H](CC(=O)O)NC(=O)[C@H](Cc3ccc(OCC(=O)O)cc3)NC(=O)[C@H](CN)NC(=O)CSC[C@@H](C(=O)N[C@@H](CCCCN)C(=O)NCCOCCOCC(=O)NCCCCCCCCCCC(=O)O)NC(=O)[C@H](CCCN)NC(=O)[C@H](C(C)C)NC(=O)[C@H](CC3CCCCC3)NC(=O)[C@H](CCN)NC(=O)[C@@H](CC(C)C)NC(=O)[C@H](CCCN)NC(=O)[C@H](CCC(=O)O)NC(=O)[C@H](Cc3ccc(-c4ccccc4)cc3)NC(=O)[C@H](C(C)C)NC2=O)c1` [Compound 2669] ({CH2CO}-[Dap]Y(Carboxymethyl)D[Phe(3-Me)]V[Bip]E[Orn][dL][Dab][Cha]V[Orn]CK[AEEA][Aun]-OH; thioether N-14), the IC50 was 11.5 nM.

Consider `CC(C)C[C@H]1NC(=O)[C@H](CCCN)NC(=O)[C@H](C(C)C)NC(=O)[C@H](Cc2ccc(-c3ccccc3)cc2)NC(=O)[C@H](C(C)C)NC(=O)[C@H](Cc2c[nH]c3ccccc23)NC(=O)[C@H](CC(=O)O)NC(=O)[C@H](Cc2ccc(OCC(=O)O)cc2)NC(=O)[C@H](CN)NC(=O)CSC[C@@H](C(=O)NCCOCCOCC(=O)N[C@H](CC(=O)O)C(=O)NCCCCCCCCCCC(=O)O)NC(=O)[C@H]([C@@H](C)O)NC(=O)[C@H](C(C)C)NC(=O)[C@H](CC2CCCCC2)NC(=O)[C@H](Cc2cnc[nH]2)NC1=O` [Compound 1132] ({CH2CO}-[Dap]Y(Carboxymethyl)DWV[Bip]V[Orn][dL]H[Cha]VTC[AEEA][dD][Aun]-OH; thioether N-14), for which the IC50 came to 35.9 nM.

With `CC(C)C[C@H]1NC(=O)[C@H](CCCN)NC(=O)[C@H](C(C)C)NC(=O)[C@H](Cc2ccc(-c3ccccc3)cc2)NC(=O)[C@H](C(C)C)NC(=O)[C@H](Cc2c[nH]c3ccccc23)NC(=O)[C@H](CC(=O)O)NC(=O)[C@H](Cc2ccc(OCC(=O)O)cc2)NC(=O)[C@H](CN)NC(=O)CSC[C@@H](C(=O)N[C@@H](CCN)C(=O)NCCCCCCCCCCC(=O)O)NC(=O)[C@H]([C@@H](C)O)NC(=O)[C@H](C(C)C)NC(=O)[C@H](CC2CCCCC2)NC(=O)[C@H](Cc2c[nH]cn2)NC1=O` [Compound 1075] ({CH2CO}-[Dap]Y(Carboxymethyl)DWV[Bip]V[Orn][dL]H[Cha]VTC[Dab][Aun]-OH; thioether N-14), the IC50 was 34.6 nM.

Regarding `CCC(C)[C@@H]1NC(=O)[C@H](Cc2ccc(-c3ccccc3)cc2)NC(=O)[C@H](C(C)C)NC(=O)[C@H](Cc2c[nH]c3ccccc23)NC(=O)[C@H](CC(=O)O)NC(=O)[C@H](Cc2ccc(OCC(=O)O)cc2)NC(=O)[C@H](C(C)O)NC(=O)CSC[C@@H](C(=O)N[C@@H](CCCN)C(=O)NCCCCCCCCCCCC(=O)O)NC(=O)[C@H](C(C)O)NC(=O)[C@H](C(C)C)NC(=O)[C@H](CC2CCCCC2)NC(=O)[C@H](CCN)NC(=O)[C@@H](CC(C)C)NC(=O)[C@H](CCCN)NC1=O` (stereo partly drawn) [Compound 3097] ({CH2CO}-[Thr(3ξ)]Y(Carboxymethyl)DWV[Bip][Ile(3ξ)][Orn][dL][Dab][Cha]V[Thr(3ξ)]C[Orn][12Ado]-OH; thioether N-14), the IC50 amounted to 22.8 nM.

As for `Cc1cccc(C[C@@H]2NC(=O)[C@H](CC(=O)O)NC(=O)[C@H](Cc3ccc(OCC(=O)O)cc3)NC(=O)[C@H](CCCCNC(=N)N)NC(=O)CSC[C@@H](C(=O)N[C@@H](CCN)C(=O)NCCCCCCCCCCC(=O)O)NC(=O)[C@H](CCCCN)NC(=O)[C@H](C(C)C)NC(=O)[C@H](CC3CCCCC3)NC(=O)[C@H](CCN)NC(=O)[C@@H](CC(C)C)NC(=O)[C@H](CCCN)NC(=O)[C@H](C(C)C)NC(=O)[C@H](Cc3ccc(-c4ccccc4)cc3)NC(=O)[C@H](C(C)C)NC2=O)c1` [Compound 3260] ({CH2CO}-[hArg]Y(Carboxymethyl)D[Phe(3-Me)]V[Bip]V[Orn][dL][Dab][Cha]VKC[Dab][Aun]-OH; thioether N-14), the IC50 was 12.2 nM.

`Cc1cccc(C[C@@H]2NC(=O)[C@H](CC(=O)O)NC(=O)[C@H](Cc3ccc(OCC(=O)O)cc3)NC(=O)[C@H](CCCNC(=N)N)NC(=O)CSC[C@@H](C(=O)N[C@@H](CCN)C(=O)NCCCCCCCCCCC(=O)O)NC(=O)[C@H](C(C)O)NC(=O)[C@H](C(C)C)NC(=O)[C@H](CC3CCCCC3)NC(=O)[C@H](CCN)NC(=O)[C@@H](CC(C)C)NC(=O)[C@H](CCCNC(N)=O)NC(=O)[C@H](Cc3ccc(OCC(=O)O)cc3)NC(=O)[C@H](Cc3ccc(-c4ccccc4)cc3)NC(=O)[C@H](Cc3ccc(OCC(=O)O)cc3)NC2=O)c1` (stereo partly drawn) [Compound 3486] ({CH2CO}-RY(Carboxymethyl)D[Phe(3-Me)]Y(Carboxymethyl)[Bip]Y(Carboxymethyl)[Cit][dL][Dab][Cha]V[Thr(3ξ)]C[Dab][Aun]-OH; thioether N-14): the IC50 worked out at 8.4 nM.

Take `CC(C)C[C@H]1NC(=O)[C@H](CCCN)NC(=O)[C@H](C(C)C)NC(=O)[C@H](Cc2ccc(-c3ccccc3)cc2)NC(=O)[C@H](C(C)C)NC(=O)[C@H](Cc2c[nH]c3ccccc23)NC(=O)[C@H](CC(=O)O)NC(=O)[C@H](Cc2ccc(OCC(=O)O)cc2)NC(=O)[C@H](CN)NC(=O)CSC[C@@H](C(=O)N[C@@H](C)C(=O)N[C@@H](CN)C(=O)NCCCCCCCCCCC(=O)O)NC(=O)[C@H]([C@@H](C)O)NC(=O)[C@H](C(C)C)NC(=O)[C@H](CC2CCCCC2)NC(=O)[C@H](Cc2cnc[nH]2)NC1=O` [Compound 1081] ({CH2CO}-[Dap]Y(Carboxymethyl)DWV[Bip]V[Orn][dL]H[Cha]VTCA[Dap][Aun]-OH; thioether N-14): the IC50 was found to be 28.5 nM.

As to `Cc1cccc(C[C@@H]2NC(=O)[C@H](CC(=O)O)NC(=O)[C@H](Cc3ccc(OCC(=O)O)cc3)NC(=O)[C@H](Cc3ccc(OCC(=O)O)cc3)NC(=O)CSC[C@@H](C(=O)NCCOCCOCC(=O)NCCCCCCCCCCC(=O)O)NC(=O)[C@H](CO)NC(=O)[C@H](C(C)C)NC(=O)[C@H](CC(C)C)NC(=O)[C@H](CCN)NC(=O)[C@@H](CC(C)C)NC(=O)[C@H](CCCN)NC(=O)[C@H](C(C)C)NC(=O)[C@H](Cc3ccc(-c4ccccc4)cc3)NC(=O)[C@@H](CC(C)C)NC2=O)c1` [Compound 1149] ({CH2CO}-Y(Carboxymethyl)Y(Carboxymethyl)D[Phe(3-Me)][dL][Bip]V[Orn][dL][Dab]LVSC[AEEA][Aun]-OH; thioether N-14), the IC50 turned out to be 19.7 nM.

`Cc1cccc(C[C@@H]2NC(=O)[C@H](CC(=O)O)NC(=O)[C@H](Cc3ccc(OCC(=O)O)cc3)NC(=O)[C@H](CCN)NC(=O)CSC[C@@H](C(=O)N[C@@H](CCN)C(=O)NCCOCCOCC(=O)NCCOCCOCC(=O)NCCCCCCCCCCCCCCC(=O)O)NC(=O)[C@H](CO)NC(=O)[C@H](C(C)(C)O)NC(=O)[C@H](CC3CCCCC3)NC(=O)[C@H](CCN)NC(=O)[C@@H](CC(C)C)NC(=O)[C@H](CCCN)NC(=O)[C@H](Cc3ccc(OCC(=O)O)cc3)NC(=O)[C@H](Cc3ccc(-c4ccccc4)cc3)NC(=O)[C@H](Cc3ccc(OCC(=O)O)cc3)NC2=O)c1` [Compound 3815] ({CH2CO}-[Dab]Y(Carboxymethyl)D[Phe(3-Me)]Y(Carboxymethyl)[Bip]Y(Carboxymethyl)[Orn][dL][Dab][Cha][Val(3-OH)]SC[Dab][AEEA][AEEA]-{NH(CH2)14COOH}; thioether N-14): the IC50 amounted to 21.7 nM.

Consider `CC(C)C[C@H]1NC(=O)[C@H](CCN)NC(=O)[C@H](Cc2ccc(O)cc2)NC(=O)[C@H](Cc2ccc(-c3ccccc3)cc2)NC(=O)[C@H](Cc2ccc(O)cc2)NC(=O)[C@H](Cc2cccc(O)c2)NC(=O)[C@H](CC(=O)O)NC(=O)[C@H](Cc2ccc(OCC(=O)O)cc2)NC(=O)[C@H](CN)NC(=O)CSC[C@@H](C(=O)N[C@@H](CCN)C(=O)NCCCCCCCCCCC(=O)O)NC(=O)[C@@H](CCN)NC(=O)[C@H](C(C)C)NC(=O)[C@H](CC2CCCCC2)NC(=O)[C@H](CCN)NC1=O` [Compound 2080] ({CH2CO}-[Dap]Y(Carboxymethyl)D[mTyr]Y[Bip]Y[Dab][dL][Dab][Cha]V[dDab]C[Dab][Aun]-OH; thioether N-14), for which the concentration for half-maximal inhibition (IC50) is 218 nM.

On to `Cc1cccc(C[C@@H]2NC(=O)[C@H](CC(=O)O)NC(=O)[C@H](Cc3ccc(OCC(=O)O)cc3)NC(=O)[C@H](CN)NC(=O)CSC[C@@H](C(=O)N[C@@H](CCCN)C(=O)NCCCCCCCCCCC(=O)O)NC(=O)[C@H](CCC(=O)O)NC(=O)[C@H](C(C)C)NC(=O)[C@H](CC3CCCCC3)NC(=O)[C@H](CCN)NC(=O)[C@@H](CC(C)C)NC(=O)[C@H](CCN)NC(=O)[C@H](Cc3ccc(OCC(=O)O)cc3)NC(=O)[C@H](Cc3ccc(-c4ccccc4)cc3)NC(=O)[C@H](Cc3ccc(OCC(=O)O)cc3)NC2=O)c1` [Compound 2856] ({CH2CO}-[Dap]Y(Carboxymethyl)D[Phe(3-Me)]Y(Carboxymethyl)[Bip]Y(Carboxymethyl)[Dab][dL][Dab][Cha]VEC[Orn][Aun]-OH; thioether N-14), for which the IC50 is 19.7 nM.
